Experimental data published in PubChem BioAssay AID1845197 (Molecular Pharmacology Branch, DTP, NCI, 2023).
One block for each compound: values may come before it.

Test system: 349418-098-R tumor spheroid viability
Test: Anticancer human tumor 349418-098-R patient-derived lung adenocarcinoma cell line growth inhibition
Conditions: spheroids with HUVEC and MSC; for viability, T/C: stronger effect = lower value
In short: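 Complex spheroids of malignant cells with endothelial cells and mesenchymal stem cells; agents alone or combined, from near clinical Cmax (or 10 microM if unknown) down in half-log steps, 0.25% DMSO final.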

[1] = curve of first compound, second compound 0.003 µM
[2] = curve of first compound, second compound 0.00949 µM
[3] = curve of first compound, second compound 0.03 µM
[4] = curve of first compound, second compound 0.0949 µM
[5] = curve of first compound, second compound 0.3 µM
[6] = second compound 0.003 µM, first compound 0.0316 µM
[7] = second compound 0.003 µM, first compound 0.1 µM
[8] = second compound 0.003 µM, first compound 0.316 µM
[9] = second compound 0.003 µM, first compound 1 µM
[10] = second compound 0.003 µM, first compound 3.16 µM
[11] = second compound 0.003 µM, first compound 10 µM
[12] = second compound 0.00949 µM, first compound 0.0316 µM
[13] = second compound 0.00949 µM, first compound 0.1 µM
[14] = second compound 0.00949 µM, first compound 0.316 µM
[15] = second compound 0.00949 µM, first compound 1 µM
[16] = second compound 0.00949 µM, first compound 3.16 µM
[17] = second compound 0.00949 µM, first compound 10 µM
[18] = second compound 0.03 µM, first compound 0.0316 µM
[19] = second compound 0.03 µM, first compound 0.1 µM
[20] = second compound 0.03 µM, first compound 0.316 µM
[21] = second compound 0.03 µM, first compound 1 µM
[22] = second compound 0.03 µM, first compound 3.16 µM
[23] = second compound 0.03 µM, first compound 10 µM
[24] = second compound 0.0949 µM, first compound 0.0316 µM
[25] = second compound 0.0949 µM, first compound 0.1 µM
[26] = second compound 0.0949 µM, first compound 0.316 µM
[27] = second compound 0.0949 µM, first compound 1 µM
[28] = second compound 0.0949 µM, first compound 3.16 µM
[29] = second compound 0.0949 µM, first compound 10 µM
[30] = second compound 0.3 µM, first compound 0.0316 µM
[31] = second compound 0.3 µM, first compound 0.1 µM
[32] = second compound 0.3 µM, first compound 0.316 µM
[33] = second compound 0.3 µM, first compound 1 µM
[34] = second compound 0.3 µM, first compound 3.16 µM
[35] = second compound 0.3 µM, first compound 10 µM
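Note: spheroids exposed to compound for 7 days before measurement.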
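Throughout, for viability, T/C: percent of vehicle control viability with 100% = DMSO-treated spheroids.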

Structure (SMILES): Cc1cc(C)c(CNC(=O)c2cc(-c3ccc(CN4CCOCC4)cc3)cc3c2cnn3C2CCCC2)c(=O)[nH]1 + CC[C@@]1(O)C(=O)OCc2c1cc1n(c2=O)Cc2cc3c(CN(C)C)c(O)ccc3nc2-1
IC50 [1]: 6.59 µM
IC50 [2]: 5.79 µM
IC50 [3]: 1.03 µM
IC50 [4]: < 0.0316 µM
IC50 [5]: < 0.0316 µM
viability, T/C [6]: 98.5%
viability, T/C [7]: 97.9%
viability, T/C [8]: 94.8%
viability, T/C [9]: 92.6%
viability, T/C [10]: 89.3%
viability, T/C [11]: 27.5%
viability, T/C [12]: 93.4%
viability, T/C [13]: 95.7%
viability, T/C [14]: 88.9%
viability, T/C [15]: 84.4%
viability, T/C [16]: 71.9%
viability, T/C [17]: 31.4%
viability, T/C [18]: 73.4%
viability, T/C [19]: 75.2%
viability, T/C [20]: 62.4%
viability, T/C [21]: 52.7%
viability, T/C [22]: 26.4%
viability, T/C [23]: 8.63%
viability, T/C [24]: 19.2%
viability, T/C [25]: 14.8%
viability, T/C [26]: 8.67%
viability, T/C [27]: 5.66%
viability, T/C [28]: 5.2%
viability, T/C [29]: 4.15%
viability, T/C [30]: 2.97%
viability, T/C [31]: 3.59%
viability, T/C [32]: 3.1%
viability, T/C [33]: 3.16%
viability, T/C [34]: 3.27%
viability, T/C [35]: 3.11%

Structure (SMILES): CC1COCCN1c1cc(-c2ccnn2C)c2ccnc(-c3ccn[nH]3)c2n1 (configuration not stated) + CC[C@@]1(O)C(=O)OCc2c1cc1n(c2=O)Cc2cc3c(CN(C)C)c(O)ccc3nc2-1
IC50 [1]: 0.079 µM
IC50 [2]: < 0.0316 µM
IC50 [3]: < 0.0316 µM
IC50 [4]: < 0.0316 µM
IC50 [5]: < 0.0316 µM
viability, T/C [6]: 107%
viability, T/C [7]: 35.1%
viability, T/C [8]: 16%
viability, T/C [9]: 15%
viability, T/C [10]: 15.6%
viability, T/C [11]: 14%
viability, T/C [12]: 42.4%
viability, T/C [13]: 20.4%
viability, T/C [14]: 13.6%
viability, T/C [15]: 16.2%
viability, T/C [16]: 12.8%
viability, T/C [17]: 12%
viability, T/C [18]: 13.5%
viability, T/C [19]: 11.5%
viability, T/C [20]: 9.56%
viability, T/C [21]: 11.4%
viability, T/C [22]: 11.6%
viability, T/C [23]: 10.8%
viability, T/C [24]: 5.41%
viability, T/C [25]: 6.47%
viability, T/C [26]: 5.98%
viability, T/C [27]: 6.27%
viability, T/C [28]: 7.68%
viability, T/C [29]: 8.39%
viability, T/C [30]: 3.23%
viability, T/C [31]: 2.54%
viability, T/C [32]: 2.76%
viability, T/C [33]: 3.58%
viability, T/C [34]: 4.37%
viability, T/C [35]: 5.17%

Structure (SMILES): COc1cc(C)[nH]c(=O)c1CN1CCc2c(Cl)cc(C(OC)C3COC3)c(Cl)c2C1=O (configuration not stated) + CC[C@@]1(O)C(=O)OCc2c1cc1n(c2=O)Cc2cc3c(CN(C)C)c(O)ccc3nc2-1
IC50 [1]: > 10 µM
IC50 [2]: > 10 µM
IC50 [3]: 5.48 µM
IC50 [4]: < 0.0316 µM
IC50 [5]: < 0.0316 µM
viability, T/C [6]: 108%
viability, T/C [7]: 123%
viability, T/C [8]: 104%
viability, T/C [9]: 109%
viability, T/C [10]: 109%
viability, T/C [11]: 114%
viability, T/C [12]: 104%
viability, T/C [13]: 121%
viability, T/C [14]: 100%
viability, T/C [15]: 113%
viability, T/C [16]: 97.1%
viability, T/C [17]: 94.8%
viability, T/C [18]: 89.7%
viability, T/C [19]: 73.8%
viability, T/C [20]: 65.6%
viability, T/C [21]: 71.8%
viability, T/C [22]: 60.1%
viability, T/C [23]: 40.5%
viability, T/C [24]: 19.4%
viability, T/C [25]: 17.1%
viability, T/C [26]: 9.77%
viability, T/C [27]: 16%
viability, T/C [28]: 13.4%
viability, T/C [29]: 8.01%
viability, T/C [30]: 5.42%
viability, T/C [31]: 4.95%
viability, T/C [32]: 4.96%
viability, T/C [33]: 3.5%
viability, T/C [34]: 4.11%
viability, T/C [35]: 5.21%

IC50 (compound alone, run of 10/17/2019): 58.3 nM [middle of 5 runs]
IC50 (compound alone, run of 10/25/2019): 43.3 nM [middle of 5 runs]
Structure (SMILES): CC[C@@]1(O)C(=O)OCc2c1cc1n(c2=O)Cc2cc3c(CN(C)C)c(O)ccc3nc2-1
viability, T/C (compound 0.003 µM): 99.8% [middle of 10 runs]
viability, T/C (compound 0.00949 µM): 97.5% [middle of 10 runs]
viability, T/C (compound 0.03 µM): 77.6% [middle of 10 runs]
viability, T/C (compound 0.0949 µM): 19.6% [middle of 10 runs]
viability, T/C (compound 0.3 µM): 4.75% [middle of 10 runs]

Structure (SMILES): CC(C)n1c(=O)n(C)c2cnc3cc(F)c(-c4ccc(OCCCN5CCCCC5)nc4)cc3c21 + Cn1nnc2c(C(N)=O)ncn2c1=O
IC50 (curve of first compound, second compound 1 µM): 9.75 µM
IC50 (curve of first compound, second compound 3.16 µM): 9 µM
IC50 (curve of first compound, second compound 10 µM): 9.25 µM
IC50 (curve of first compound, second compound 31.6 µM): 8.89 µM
IC50 (curve of first compound, second compound 100 µM): 8.48 µM
viability, T/C (second compound 1 µM, first compound 0.0316 µM): 104%
viability, T/C (second compound 1 µM, first compound 0.1 µM): 99.5%
viability, T/C (second compound 1 µM, first compound 0.316 µM): 101%
viability, T/C (second compound 1 µM, first compound 1 µM): 101%
viability, T/C (second compound 1 µM, first compound 3.16 µM): 103%
viability, T/C (second compound 1 µM, first compound 10 µM): 48.8%
viability, T/C (second compound 3.16 µM, first compound 0.0316 µM): 102%
viability, T/C (second compound 3.16 µM, first compound 0.1 µM): 105%
viability, T/C (second compound 3.16 µM, first compound 0.316 µM): 103%
viability, T/C (second compound 3.16 µM, first compound 1 µM): 103%
viability, T/C (second compound 3.16 µM, first compound 3.16 µM): 102%
viability, T/C (second compound 3.16 µM, first compound 10 µM): 44.7%
viability, T/C (second compound 10 µM, first compound 0.0316 µM): 98.6%
viability, T/C (second compound 10 µM, first compound 0.1 µM): 103%
viability, T/C (second compound 10 µM, first compound 0.316 µM): 99.6%
viability, T/C (second compound 10 µM, first compound 1 µM): 103%
viability, T/C (second compound 10 µM, first compound 3.16 µM): 104%
viability, T/C (second compound 10 µM, first compound 10 µM): 46.3%
viability, T/C (second compound 31.6 µM, first compound 0.0316 µM): 102%
viability, T/C (second compound 31.6 µM, first compound 0.1 µM): 106%
viability, T/C (second compound 31.6 µM, first compound 0.316 µM): 98.4%
viability, T/C (second compound 31.6 µM, first compound 1 µM): 105%
viability, T/C (second compound 31.6 µM, first compound 3.16 µM): 105%
viability, T/C (second compound 31.6 µM, first compound 10 µM): 43.9%
viability, T/C (second compound 100 µM, first compound 0.0316 µM): 103%
viability, T/C (second compound 100 µM, first compound 0.1 µM): 107%
viability, T/C (second compound 100 µM, first compound 0.316 µM): 105%
viability, T/C (second compound 100 µM, first compound 1 µM): 102%
viability, T/C (second compound 100 µM, first compound 3.16 µM): 102%
viability, T/C (second compound 100 µM, first compound 10 µM): 41.3%
